Laboratory results reported in PMC8022858, “Discovery of bone morphogenetic protein 7-derived peptide sequences that attenuate the human osteoarthritic chondrocyte phenotype” (Molecular Therapy. Methods & Clinical Development, 2021).

Legend:
[1] = system: OA-HAC pool; assay: Alanine scanning of peptide p[63-82], gene expression and bioactivity score; assay type: cell-based, human; conditions: pool of 18 OA-HACs, 100 nM; for impact of alanine substitution on peptide p[63-82] bioactivity (bioactivity score): 24 h, score = sum of fold change of COL10A1, ALPL, MMP13, COL2A1, NKX3-2 versus wild-type (Figure 5C)
Experimental: Figure 5 Molecular characterization of peptides p[63−82] and p[113−132] (A) A pool of OA-HACs (n = 4 donors) was transfected with a scrambled siRNA or with an NKX3-2 siRNA (100 nM siRNA) and cultured for 24 h. Cultures were then exposed to peptide p[63−82] or p[113−132] (100 nM peptide). Samples were harvested 24 h later and analyzed for the expression of the indicated mRNAs (normalized to 28S rRNA). (B) SW1353 chondrocytic cells were transfected with BRE (SMAD1/5/8 reporter) or CAGA12 (SMAD2/3 reporter) firefly luciferase-reporter plasmids. A CMV-Gaussia plasmid was cotransfected as a transfection control. Cells were then cultured for 24 h and subsequently exposed to control, p[63−82], or p[113−132] for 8 h. Firefly and Gaussia bioluminescence were measured in cells and medium (respectively), and relative light units (RLUs) of firefly luciferase were normalized for the Gaussia luciferase signal. The normalized firefly luciferase signal of the control condition was set at 1, and peptide conditions were calculated relative to the control condition (FL/GL). Error bars represent mean ± SEM; statistical significance for peptide conditions versus siScrambled or siNKX3-2 (A) or control condition (B) as determined by unpaired two-tailed Student’s t test is represented as ∗p < 0.05, ∗∗p < 0.01, and ∗∗∗p < 0.001. (C) An alanine scanning library of peptide p[63−82] was synthesized, and the pool of 18 OA-HACs originally used for the full library scanning (Figure 1) was exposed to individual peptides from the alanine scanning library (100 nM peptide) for 24 h. An alanine-scanning bioactivity score (sum of the fold change gene expression of COL10A1, ALPL, MMP13, and COL2A1 plus NKX3-2 of the alanine-substituted peptides versus the wild-type p[63−82] peptide) was calculated for each alanine substitution in the amino acid sequence of peptide p[63−82] and is represented by the height of each letter on the y axis (data in Figure S4). (D) Multiple sequence alignment of the human BMP7 p[63−82] peptide with the homologous region in BMP7 of other species.
We aimed to further understand the sequence dependency of the peptide bioactivity. Peptide p[63−82] was derived from the central region within BMP7, and since this yielded a limited series of bioactive peptides (Figures 1B and S2), we further focused our analyses on peptide p[63−82]. To determine which amino acids are important for the bioactivity of peptide p[63−82], an alanine-scanning peptide library was synthesized, based on systematic alanine substitution of consecutive amino acids in the peptide p[63−82] sequence (Table S1). This alanine-scanning library was then screened by exposing an OA-HAC pool (the same pool that was used for the full library scanning in Figure 1) for 24 h to 100 nM of each peptide in the alanine-scanning library. The bioactivity of each peptide was determined by measuring gene expression of COL10A1, ALPL, MMP13, COL2A1, and NKX3-2 (Figure S4). Changes in the bioactivity of the alanine-scanning library peptides were combined into a “bioactivity score” of each individual substituted amino acid in the parental p[63−82] peptide (Figure 5C). […] The region in BMP7 from which peptide p[63−82] was derived and the G7 position in it are evolutionary highly conserved, as determined by sequence alignment of BMP7 sequences from various animal species (Figure 5D).
For the peptide-screening and alanine-scanning experiments, cDNA was prepared using the Cells-to-Ct kit (Invitrogen) according to the manufacturer’s protocol. For the other experiments, cells or homogenized tissues (Mikro-Dismembrator; Braun Biotech International) were lysed in TRIzol (Life Technologies) and RNA isolation and cDNA synthesis were performed as described earlier.[27]^,[57] Quantitative real-time PCR was performed using Takyon qPCR Master Mix plus blue for SYBR Green (Eurogentec). […]

[2] = system: primary human OA articular chondrocytes (OA-HACs); assay: BMP7 peptide library screening, quantitative real-time PCR of OA chondrocyte phenotype genes; assay type: cell-based; conditions: pool of 18 OA-HAC donors, scrambled peptides 100 nM, 24 h (Figure 2G)
Text: To investigate whether BMP7 harbors potential peptide sequences that improve the OA chondrocyte phenotype, a peptide library was designed from the mature 139 amino acid-long human BMP7 sequence (Table S2). The peptide library was designed as 20-mer peptides with 2 amino acid intervals (18 amino acid overlap) between individual peptides and with all cysteine residues substituted by serine residues to avoid uncontrolled oxidation of cysteine groups. This yielded 61 individual peptides covering the complete mature human BMP7 sequence (Figure 1A). The peptide library was screened using a pool of primary human OA articular chondrocytes (OA-HACs) from 18 individual donors. Prior to pooling, individual OA-HAC isolates were tested for their responsiveness to BMP7 (Figure S1). The screening was conducted by exposing the OA-HAC pool for 24 h to a concentration series (1, 10, 100, or 1,000 nM) of each peptide from the library. […] This is defined as reduced expression of collagen type X alpha 1 chain (COL10A1), alkaline phosphatase (ALPL), Runt-related transcription factor 2 (RUNX2), ADAMTS5, MMP13, prostaglandin-endoperoxide synthase 2 or cyclooxygenase-2 (COX-2), and interleukin 6 (IL6) and increased expression of SRY-box transcription factor 9 (SOX9), COL2A1, and NKX3-2. […] Representative peptides inducing the above gene expression characteristics in OA-HACs were selected from both regions for further investigation. These were peptide p[63−82] and p[113−132] from the library, covering amino acids 63−82 and 113−132 of the mature BMP7 amino acid sequence. The complete quantitative real-time PCR data for peptides p[63−82] and p[113−132] […] For the two candidate peptides, we validated data using an independent cohort of three OA-HACs exposed to 100 nM of p[63−82] or p[113−132] or a combination of both peptides. […] Taken together, two regions in BMP7 were identified delivering peptide sequences that are able to improve the OA chondrocyte phenotype.
Figure 1 BMP7 peptide library screening on primary human OA articular chondrocytes (OA-HACs) (A) Schematic representation of the design of the human BMP7 peptide library. (B) COL10A1 mRNA expression in samples from the library screening on a pool of 18 OA-HACs individually exposed for 24 h to the peptides (100 nM) in the library. Data are shown as compared to the control condition (white bar) and full-length BMP7 (1 nM; gray bar). The two blue bars represent candidate peptides p[63−82] and p[113−132]. […] Error bars represent mean ± SEM, and statistical significance for peptide condition or BMP7 versus control condition as determined by unpaired two-tailed Student’s t test is represented as ∗p < 0.05, ∗∗p < 0.01, and ∗∗∗p < 0.001; NS, not significant.
Figure 2 Bioactivity of BMP7-derived peptides p[63−82] and p[113−132] on OA-HACs Complete peptide library screening quantitative real-time PCR dataset for peptides p[63−82] and p[113−132] is presented. (A) SOX9, COL2A1, and NKX3-2 mRNA expression in the 18 OA-HAC pool exposed to 1,000, 100, 10, or 1 nM of peptide p[63−82] and p[113−132] is shown and presented relative to control (black bars) and alongside full-length BMP7 (white bars). (B) Similar to (A) but for chondrocyte hypertrophy-associated genes RUNX2, COL10A1, and ALPL. (C) Similar to (A) but for cartilage extracellular matrix remodeling-associated genes MMP13 and ADAMTS5 and inflammation-related genes COX-2 and IL-6. (D) Glycosaminoglycan (GAG) content (normalized to total protein content) on an independent cohort of three individual OA-HAC donors treated with 100 nM peptides p[63−82] and p[113−132] for 24 h. (E) Alkaline phosphatase (ALP) activity (normalized to total protein content) in similar samples from (D). (F) Prostaglandin E2 (PGE2) levels in culture supernatant in similar samples from (D). […]

Row | Substance | impact of alanine substitution on peptide p[63-82] bioactivity (bioactivity score) [1] | further results
1 | H-AAAYSEGESAFPLNSYMNAT-OH [Y3A, alanine-scanning peptide of p[63−82], substitution position 03] | important impact | 
2 | H-AAYYSEAESAFPLNSYMNAT-OH [G7A, alanine-scanning peptide of p[63−82], substitution position 07] | important impact | response on chondrocyte hypertrophy ([1]; 24 h (Figure S4)): reciprocal response; impact on the chondrocyte phenotype-modulating action of the peptide ([1]; 24 h (Figures 5C, S4)): largest impact
3 | H-AAYYSEGASAFPLNSYMNAT-OH [E8A, alanine-scanning peptide of p[63−82], substitution position 08] | important impact | 
4 | H-AAYYSEGESAAPLNSYMNAT-OH [F11A, alanine-scanning peptide of p[63−82], substitution position 11] | important impact | 
5 | H-AAYYSEGESAFPLNSAMNAT-OH [Y16A, alanine-scanning peptide of p[63−82], substitution position 16] | important impact | 
6 | H-AAYYSEGESAFPLNSYANAT-OH [M17A, alanine-scanning peptide of p[63−82], substitution position 17] | important impact | 
7 | H-VYISNVDDYSNKFLLKVRSM-OH [scrambled p[113−132], scrambled version of peptide p[113−132], reference compound] |  | sequence specificity: expression of COL2A1, RUNX2, COL10A1, and COX-2 [2]: neither one of them was able to recapitulate the bioactivity
